Here are results for 22 molecules from US7138411B2, “Substituted benzopyran derivatives for the treatment of inflammation” (G.D. Searle & Co., priority 1997, dated 2006).

The nature of one series: Analgesia (Table I). The series is classed as in vivo. On the set-up: inhibition in vivo: dose or concentration left out as unconfirmed. To be noted: read-out: ANALGESIA % Inhibition; for inhibition in vivo at 10 mg/kg: @ 10 mpk (values marked *).
The test system of a further series is carrageenan foot edema. The series is described as follows: Rat carrageenan foot pad edema test. Format: in vivo, Male Sprague-Dawley rats. On the set-up: inhibition in vivo: dose or concentration left out as unconfirmed. The note with it: po, 3 h, dosed orally, foot volume three hours after carrageenan, read-out: RAT PAW EDEMA % Inhibition; for inhibition in vivo at 10 mg/kg: @ 10 mpk (values marked *). Here is the method: Rat Carrageenan Foot Pad Edema Test
Male Sprague-Dawley rats were selected in each group so that the average body weight was as close as possible. Rats were fasted with free access to water for over sixteen hours prior to the test. The rats were dosed orally (1 mL) with compounds suspended in vehicle containing 0.5% methylcellulose and 0.025% surfactant, or with vehicle alone. One hour later a subplantar injection of 0.1 mL of 1% solution of carrageenan/sterile 0.9% saline was administered and the volume of the injected foot was measured with a displacement plethysmometer connected to a pressure transducer with a digital indicator. Three hours after the injection of the carrageenan, the volume of the foot was again measured. The average foot swelling in a group of drug-treated animals was compared with that of a group of placebo-treated animals and the percentage inhibition of edema was determined (Otterness and Bliven, Laboratory Models for Testing NSAIDs, in Non-steroidal Anti-Inflammatory Drugs, (J. Lombardino, ed. 1985)).

The target in series [1] is T1, COX-2 (UniProt P35354).
T1 sequence (P35354 1-604): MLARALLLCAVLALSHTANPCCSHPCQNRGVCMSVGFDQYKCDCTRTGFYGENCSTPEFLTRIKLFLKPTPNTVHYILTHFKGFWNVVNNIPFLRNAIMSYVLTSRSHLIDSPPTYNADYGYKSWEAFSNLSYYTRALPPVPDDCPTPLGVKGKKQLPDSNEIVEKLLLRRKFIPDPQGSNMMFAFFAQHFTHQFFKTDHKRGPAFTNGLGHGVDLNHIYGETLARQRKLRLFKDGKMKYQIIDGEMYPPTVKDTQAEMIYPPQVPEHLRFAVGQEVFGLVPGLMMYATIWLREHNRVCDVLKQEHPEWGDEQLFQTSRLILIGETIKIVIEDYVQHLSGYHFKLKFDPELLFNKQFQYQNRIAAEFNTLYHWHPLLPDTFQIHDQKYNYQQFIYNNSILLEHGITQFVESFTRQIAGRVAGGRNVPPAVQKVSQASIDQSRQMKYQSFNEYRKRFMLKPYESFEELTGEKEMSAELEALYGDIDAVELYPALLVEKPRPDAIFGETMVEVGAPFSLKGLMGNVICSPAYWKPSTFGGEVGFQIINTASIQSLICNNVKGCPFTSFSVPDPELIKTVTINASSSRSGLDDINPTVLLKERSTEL
The series is described as follows: Fast assay for COX-2 activity (PGE2 ELISA). The note with it: fast assay: 10 min pre-incubation at 25° C., reaction stopped after two minutes, pH 7.5. Format: biochemical, human or murine. For orientation: ELISA stands for enzyme-linked immunosorbent assay.

Series [2] has as its target T1, COX-2. In words: Assay for COX-2 activity (PGE2 ELISA). The note with it: read-out: COX-2 IC50; 10–20 minutes pre-incubation, reaction stopped after ten minutes, pH 8.0.
Description: Recombinant baculoviruses were isolated by transfecting 4 μg of baculovirus transfer vector DNA into SF9 insect cells (2×10^8) along with 200 ng of linearized baculovirus plasmid DNA by the calcium phosphate method. […] Recombinant viruses were purified by three rounds of plaque purification and high titer (10^7–10^8 pfu/mL) stocks of virus were prepared. For large scale production, SF9 insect cells were infected in 10 liter fermentors (0.5×10^6/mL) with the recombinant baculovirus stock such that the multiplicity of infection was 0.1. […] The homogenate was centrifuged at 10,000×G for 30 minutes, and the resultant supernatant was stored at −80° C. before being assayed for COX activity.
Assay for COX-1 and COX-2 Activity
COX activity was assayed as PGE2 formed/μg protein/time using an ELISA to detect the prostaglandin released. CHAPS-solubilized insect cell membranes containing the appropriate COX enzyme were incubated in a potassium phosphate buffer (50 mM, pH 8.0) containing epinephrine, phenol, and heme with the addition of arachidonic acid (10 μM). […] The PGE2 formed was measured by standard ELISA technology (Cayman Chemical).
The target of another series is COX-1 (UniProt P23219). In words: Assay for COX-1 activity (PGE2 ELISA). To be noted: read-out: COX-1 IC50; 10–20 minutes pre-incubation, reaction stopped after ten minutes, pH 8.0.

The structures appear in SMILES notation.

Take `CC(C)(C)c1cc2c(cc1Cl)C=C(C(=O)O)C(C(F)(F)F)O2` (stereo not shown) [Example 8, 6-Chloro-7-(1,1-dimethylethyl)-2-trifluoromethyl-2H-1-benzopyran-3-carboxylic acid]: the inhibition in vivo in the series “Analgesia (Table I)” was 36%; in the series on carrageenan foot edema, 43%.
For the molecule `O=C(O)C1=Cc2cc(Cl)cc(Cl)c2OC1C(F)(F)F` (stereo not shown) [Example 32, 6,8-Dichloro-2-trifluoromethyl-2H-1-benzopyran-3-carboxylic acid], the inhibition in vivo at 10 mg/kg is 73% in the series “Analgesia (Table I)” and 59% with carrageenan foot edema.
The like results for `O=C(O)C1=Cc2cc(Cl)ccc2NC1C(F)(F)F` (stereo not shown) [Example 157, 6-Chloro-1,2-dihydro-2-(trifluoromethyl)-3-quinolinecarboxylic acid] were, in that order, 36% and 44%.
On the same counts, the results for `O=C(O)C1=Cc2cc(Cl)cc(Cl)c2NC1C(F)(F)F` (stereo not shown) [Example 158, 6,8-Dichloro-1,2-dihydro-2-(trifluoromethyl)-3-quinolinecarboxylic acid] are 55% and 45%.
Turning to `O=C(O)C1=Cc2cc(Br)ccc2NC1C(F)(F)F` (stereo not shown) [Example 161, 6-Bromo-1,2-dihydro-2-(trifluoromethyl)-3-quinolinecarboxylic acid], the results for the inhibition in vivo in “Analgesia (Table I)” and with carrageenan foot edema were 56% and 53%, respectively.
On the same counts, the results for `O=C(O)C1=Cc2cc(Cl)ccc2N[C@@H]1C(F)(F)F` [Example 172, (S)-6-chloro-1,2-dihydro-2-(trifluoromethyl)-3-quinolinecarboxylic acid] are 67% and 57%.
Usually IC50 stands for the point on the concentration scale where inhibition reaches its midpoint. In general, melting point refers to the temperature, or range, at which the solid turns liquid. With `O=C(O)C1=Cc2cc(Cl)c(Oc3ccc(C(F)(F)F)cc3)cc2OC1C(F)(F)F` (stereo not shown) [Example 186, 6-Chloro-2-(trifluoromethyl)-7-[4-(trifluoromethyl)phenoxy]-2H-1-beazopyran-3-carboxylic acid], the melting point is 230.9 to 232 °C. Further, the IC50 against COX-2 [1] is < 100 nM. For the same molecule, the IC50 at COX-2 [2] stood at 3400 nM. The half-maximal inhibitory concentration (IC50) on COX-1 was found to be 32800 nM.
The like results for `O=C(O)C1=Cc2cc(Cl)c(Oc3ccc(OC(F)(F)F)cc3)cc2OC1C(F)(F)F` (stereo not shown) [Example 187, 6-Chloro-2-(trifluoromethyl)-7-[4-(trifluoromethoxy)phenoxy]-2H-1-benzopyran-3-carboxlic acid] were, in that order, 198 to 199.2 °C, 2900 nM, 33700 nM and > 100000 nM.
As for `O=C(O)C1=Cc2cc(Cl)c(Oc3ccc4cc(Br)ccc4c3)cc2OC1C(F)(F)F` (stereo not shown) [Example 189, 7-[(6-Bromo-2-naphthalenyl)oxy]-6-chloro-2-(trifluoromethyl)-2H-1-benzopyran-3-carboxylic acid], the melting point lay within 252.6 to 254.8 °C. Also, on COX-2 [1], the half-inhibitory concentration (IC50) was < 100 nM. On COX-2 [2], the IC50 came out at 1200 nM. The IC50 at COX-1 was 44800 nM.
The like results for `Cc1cccc(C)c1Oc1cc2c(cc1Cl)C=C(C(=O)O)C(C(F)(F)F)O2` (stereo not shown) [Example 190, 6-Chloro-7-(2,6-dimethylphenoxy)-2-(trifluoromethyl)-2H-1-benzopyran-3-carboxylic acid] were, in that order, 252.7 to 258.6 °C, 500 nM, 500 nM and 37400 nM.
The molecule `COc1ccc(Sc2cc3c(cc2Cl)C=C(C(=O)O)C(C(F)(F)F)O3)cc1` (stereo not shown) [Example 191, 6-Chloro-7-[(4-methoxyphenyl)thio]-2-(trifluoromethyl)-2H-1-benzopyran-3-carboxylic acid] registered a melting point of 239.4 to 242.3 °C. In addition, the IC50 against COX-2 [1] is < 100 nM. Moreover, at COX-2 [2], the 50% inhibitory concentration (IC50) came to 42200 nM. The IC50 on COX-1 is > 100000 nM.
The like results for `O=C(O)C1=Cc2cc(Cl)c(Sc3ccc(Cl)cc3)cc2OC1C(F)(F)F` (stereo not shown) [Example 192, 6-Chloro-7-[(4-chlorophenyl)thio]-2-(trifluoromethyl)-2H-1-benzopyran-3-carboxylic acid] were, in that order, 251.7 to 253.3 °C, < 100 nM, 1400 nM and 12300 nM.
`O=C(O)C1=Cc2cc(Cl)c([S+]([O-])c3ccc(Cl)cc3)cc2OC1C(F)(F)F` (stereo not shown) [Example 193, 6-Chloro-7-[(4-chlorophenyl)sulfinyl]-2-(trifluoromethyl)-2H-1-benzopyran-3-carboxylic acid] came in with a melting point of 213.8 to 217.4 °C. This molecule had a half-maximal inhibitory concentration (IC50) at COX-2 [1] of 1200 nM. For the same molecule, the IC50 on COX-2 [2] was > 100000 nM. For the same molecule, the 50% inhibitory concentration (IC50) at COX-1 was > 100000 nM.
Consider `O=C(O)C1=Cc2cc(Cl)c(Sc3ccccc3)cc2OC1C(F)(F)F` (stereo not shown) [Example 195, 6-Chloro-7-(phenylthio)-2-(trifluoromethyl)-2H-1-benzopyran-3-carboxylic acid], for which the melting point lay within 271.7 to 274.4 °C. The concentration for half-maximal inhibition (IC50) on COX-2 [1] is < 100 nM. At COX-2 [2], the IC50 is < 100 nM. Moreover, the IC50 on COX-1 worked out at 2600 nM.
Regarding `O=C(O)C1=Cc2cc(Cl)c(Oc3cccc(Cl)c3)cc2OC1C(F)(F)F` (stereo not shown) [Example 196, 6-Chloro-7-(3-chlorophenoxy)-2-(trifluoromethyl)-2H-1-benzopyran-3-carboxylic acid], the melting point fell in the range of 174.1 to 176.1 °C. The IC50 against COX-2 [1] is < 100 nM. Further, at COX-2 [2], the concentration for half-maximal inhibition (IC50) was 9500 nM. In addition, at COX-1, the IC50 stood at 30300 nM.
For the molecule `O=C(O)C1=Cc2cc(Cl)c(Oc3ccc(Cl)cc3Cl)cc2OC1C(F)(F)F` (stereo not shown) [Example 197, 6-Chloro-7-(2,4-dichlorophenoxy)-2-(trifluoromethyl)-2H-1-benzopyran-3-carboxylic acid], the melting point was 233 to 234 °C. For the same molecule, at COX-2 [1], the half-maximal inhibitory concentration (IC50) was < 100 nM. Further, the IC50 on COX-2 [2] is < 100 nM. In addition, at COX-1, the IC50 was found to be 400 nM.
Take `O=C(O)C1=Cc2cc(Cl)c(Oc3ccc(F)c(F)c3)cc2OC1C(F)(F)F` (stereo not shown) [Example 198, 6-Chloro-7-(3,4-difluorophenoxy)-2-(trifluoromethyl)-2H-1-benzopyran-3-carboxylic acid]: the melting point was 191.9 to 193.1 °C. In addition, the IC50 on COX-2 [1] was < 100 nM. The IC50 on COX-2 [2] was < 100 nM. Also, the IC50 at COX-1 amounted to 12400 nM.
Take `O=C(O)C1=Cc2cc(Cl)c(Oc3cccnc3Cl)cc2OC1C(F)(F)F` (stereo not shown) [Example 200, 6-Chloro-7-[(2-chloro-3-pyridinyl)oxy]-2-(trifluoromethyl)-2H-1-benzopyran-3-carboxylic acid]: the melting point lay within 213.4 to 216.2 °C. Also, at COX-2 [1], the IC50 was < 100 nM. Moreover, the IC50 at COX-2 [2] was < 100 nM. For the same molecule, the IC50 on COX-1 amounted to 28500 nM.
Molecule `O=C(O)C1=Cc2cc(Cl)c(Oc3cccnc3)cc2OC1C(F)(F)F` (stereo not shown) [Example 201, 6-Chloro-7-[3-pyridinyloxy]-2-(trifluoromethyl)-2H-1-benzopyran-3-carboxylic acid] came in with a melting point of 237.8 to 238.8 °C. Further, the IC50 on COX-2 [1] was < 100 nM. Besides, the IC50 at COX-2 [2] stood at 100 nM. Also, at COX-1, the IC50 was 63800 nM.
In turn, `O=C(O)C1=Cc2cc(Cl)c(OCC(F)(F)F)cc2OC1C(F)(F)F` (stereo not shown) [Example 209] returned a melting point of 174.4 to 176 °C. For the same molecule, at COX-2 [1], the 50% inhibitory concentration (IC50) was found to be 200 nM. Besides, the IC50 at COX-2 [2] was > 100000 nM. On COX-1, the IC50 is > 100000 nM.
In turn, `C#Cc1ccc2c(c1)C=C(C(=O)O)C(C(F)(F)F)N2` (stereo not shown) [Example 210, 1,2-Dihydro-6-ethynyl-2-(trifluoromethyl)-3-quinolinecarboxylic acid] yielded a melting point of 259 to 268 °C. The molecule also yielded a half-maximal inhibitory concentration (IC50) on COX-2 [1] of 1700 nM. Further, the 50% inhibitory concentration (IC50) on COX-2 [2] came to 10000 nM. Further, the IC50 on COX-1 is > 100000 nM.
On to `O=C(O)C1=Cc2cc(C#Cc3ccccc3)ccc2NC1C(F)(F)F` (stereo not shown) [Example 211, 1,2-Dihydro-6-(phenylethynyl)-2-(trifluoromethyl)-3-quinolinecarboxylic acid], for which the melting point lay in the range of 218 to 219 °C. Half-maximal inhibition at COX-2 [1] (IC50) required 1900 nM. Moreover, the IC50 at COX-2 [2] came to 2400 nM. Moreover, on COX-1, the half-inhibitory concentration (IC50) turned out to be 3800 nM.
